# Source: patent publication US8431704B2, “Quinoline or isoquinoline substituted P2X7 antagonists” (Janssen Pharmaceutica NV, priority 2008, dated 2013)
# Target: T1, P2X7 (Homo sapiens, UniProt Q99572)
# T1 construct: endogenous in cells; host or cells: THP-1 human monocytic cell line
# T1 sequence (Q99572 1-595): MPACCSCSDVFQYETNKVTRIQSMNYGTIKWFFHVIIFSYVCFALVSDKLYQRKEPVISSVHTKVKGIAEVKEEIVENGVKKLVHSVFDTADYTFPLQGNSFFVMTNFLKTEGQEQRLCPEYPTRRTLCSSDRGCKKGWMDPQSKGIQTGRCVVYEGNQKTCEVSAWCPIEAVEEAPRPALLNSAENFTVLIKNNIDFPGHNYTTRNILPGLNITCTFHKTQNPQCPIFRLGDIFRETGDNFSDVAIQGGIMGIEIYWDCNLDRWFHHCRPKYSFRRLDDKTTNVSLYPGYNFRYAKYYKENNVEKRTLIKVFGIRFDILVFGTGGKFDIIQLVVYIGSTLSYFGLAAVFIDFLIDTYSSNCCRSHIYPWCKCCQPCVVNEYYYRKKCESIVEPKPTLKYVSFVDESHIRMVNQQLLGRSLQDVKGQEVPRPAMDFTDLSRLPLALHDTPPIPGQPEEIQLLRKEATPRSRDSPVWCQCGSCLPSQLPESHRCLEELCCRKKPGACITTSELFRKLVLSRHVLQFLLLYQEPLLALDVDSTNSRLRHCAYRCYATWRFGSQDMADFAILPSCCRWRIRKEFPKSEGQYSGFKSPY
# Assay: THP-1 YoPro uptake assay (BzATP-stimulated Yo-Pro-1 uptake)
# Format: cell-based
# Conditions: Table F-10, THP-1 cells, read-out: mean pIC50 values for P2X7 antagonism (converted)
# Protocol: The human monocytic cell line THP-1 was grown as a suspension culture in RPMI medium supplemented with 10% fetal bovine serum, penicillin/streptomycin (50 units/mL), 2 mM L-glutamine, and 20 μM 2-mercaptoethanol. Cells were maintained at a density below 0.5 million per mL. On the day of the assay, cells were washed twice with assay buffer, and then resuspended at 2 million per mL in assay buffer containing 2 μM Yo-Pro-1 (Invitrogen). The assay buffer contained (in mM): 280 sucrose, 5 KCl, 10 glucose, 10 HEPES, 5 N-methyl-D-glucamine. The cells were added at 200 k/well into poly-D-lysine-coated black-walled 96-well plates (Biocoat, Becton-Dickinson). Test compounds were dissolved in DMSO, and then added at the test concentration to each well of the 96-well plate. Concentration dependence of block was determined by exposing each well of cells in duplicate rows of a 96-well plate to a serial dilution of test compound. The concentration series usually started at 10 μM with a three-fold decrement in concentration. The final DMSO concentration seen by the cells was less than 0.5%. Cells were incubated with test compounds for 30 minutes at 37° C. A background reading was taken using a Gemini SpectraMax with 490 nm excitation and 530 nm emission. […] After incubation for 60 minutes at 37° C., an endpoint read was taken in the SpectraMax plate reader. The amount of block of the response was determined by comparing the fluorescence intensity in each well to the average of control wells on each plate. The control wells contained either a known antagonist of P2X7 (positive controls) or a concentration of DMSO equal to that in the test wells. Data were analyzed using a nonlinear regression program (Origin, OriginLab, MA). Results are reported as the −log of the IC50 (pIC50).
row,IC50 [nM],SMILES
1,14.8,O=C(NCC(c1cnc(C(F)(F)F)nc1)N1CCC(F)(F)CC1)c1c(Cl)ccc2nc(N3CCOCC3)ccc12 (stereo not drawn) [Compound 403]
2,8.71,CN(C)[C@@H]1CCN(c2ccc3c(C(=O)NCC(c4cnc(C(F)(F)F)nc4)N4CCOCC4)c(Cl)ccc3n2)C1 (stereo partly drawn) [Compound 406]
3,7.41,CN(C)[C@H]1CCN(c2ccc3c(C(=O)NCC(c4cnc(C(F)(F)F)nc4)N4CCOCC4)c(Cl)ccc3n2)C1 (stereo partly drawn) [Compound 407]
4,6.76,CC(C)CN1CCN(c2ccc3c(C(=O)NCC(c4cnc(C(F)(F)F)nc4)N4CCOCC4)c(Cl)ccc3n2)CC1 (stereo not drawn) [Compound 408]
5,3.39,O=C(NCC(c1cnc(C(F)(F)F)nc1)N1CCOCC1)c1c(Cl)ccc2nc(N3CCN(C4CC4)CC3)ccc12 (stereo not drawn) [Compound 409]
6,5.01,CC(C)N1CCN(c2ccc3c(C(=O)NCC(c4cnc(C(F)(F)F)nc4)N4CCOCC4)c(Cl)ccc3n2)CC1 (stereo not drawn) [Compound 410]
7,5.62,CCN1CCN(c2ccc3c(C(=O)NCC(c4cnc(C(F)(F)F)nc4)N4CCOCC4)c(Cl)ccc3n2)CC1 (stereo not drawn) [Compound 411]
8,5.13,CN(C)CCNc1ccc2c(C(=O)NCC(c3cnc(C(F)(F)F)nc3)N3CCOCC3)c(Cl)ccc2n1 (stereo not drawn) [Compound 412]
9,5.13,N[C@@H]1CCCN(c2ccc3c(C(=O)NCC(c4cnc(C(F)(F)F)nc4)N4CCOCC4)c(Cl)ccc3n2)C1 (stereo partly drawn) [Compound 413]
10,4.17,O=C(NCC(c1cnc(C(F)(F)F)nc1)N1CCOCC1)c1c(Cl)ccc2nc(N3CCCCC3)ccc12 (stereo not drawn) [Compound 414]
11,2.4,O=C(NCC(c1cnc(C(F)(F)F)nc1)N1CCOCC1)c1c(Cl)ccc2nc(N3CCCC3)ccc12 (stereo not drawn) [Compound 415]
12,1.74,O=C(NCC(c1cnc(C(F)(F)F)nc1)N1CCOCC1)c1c(Cl)ccc2nc(N3CCC3)ccc12 (stereo not drawn) [Compound 416]
13,1.12,N[C@@H]1CCCN(c2ccc3c(C(=O)NCC(c4cnc(C(F)(F)F)nc4)N4CCC(F)(F)CC4)c(Cl)ccc3n2)C1 (stereo partly drawn) [Compound 423]
14,2.24,N[C@H]1CCCN(c2ccc3c(C(=O)NCC(c4cnc(C(F)(F)F)nc4)N4CCC(F)(F)CC4)c(Cl)ccc3n2)C1 (stereo partly drawn) [Compound 424]
15,6.31,O=C(NCC(c1cnc(C(F)(F)F)nc1)N1CCC(F)(F)CC1)c1c(Cl)ccc2nc(N3CCN(C4CC4)CC3)ccc12 (stereo not drawn) [Compound 425]
16,5.75,CC(C)CN1CCN(c2ccc3c(C(=O)NCC(c4cnc(C(F)(F)F)nc4)N4CCC(F)(F)CC4)c(Cl)ccc3n2)CC1 (stereo not drawn) [Compound 426]
17,3.39,CC(C)N1CCN(c2ccc3c(C(=O)NCC(c4cnc(C(F)(F)F)nc4)N4CCC(F)(F)CC4)c(Cl)ccc3n2)CC1 (stereo not drawn) [Compound 427]

row,IC50 [nM],SMILES
1,3.24,CCN1CCN(c2ccc3c(C(=O)NCC(c4cnc(C(F)(F)F)nc4)N4CCC(F)(F)CC4)c(Cl)ccc3n2)CC1 (stereo not drawn) [Compound 428]
2,22.4,O=C(NCC(c1cnc(C(F)(F)F)nc1)N1CCOCC1)c1c(Cl)ccc2nc(NCCCO)ccc12 (stereo not drawn) [Compound 430]
3,100000,O=C(NCC(c1cnc(C(F)(F)F)nc1)N1CCOCC1)c1c(Cl)ccc2nc(NCC3CCCO3)ccc12 (stereo not drawn) [Compound 432]
4,11.5,CNCCCN(C)c1ccc2c(C(=O)NCC(c3cnc(C(F)(F)F)nc3)N3CCOCC3)c(Cl)ccc2n1 (stereo not drawn) [Compound 433]
5,14.5,O=C(NCC(c1cnc(C(F)(F)F)nc1)N1CCOCC1)c1c(Cl)ccc2nc(NCc3ccccc3)ccc12 (stereo not drawn) [Compound 434]
6,77.6,O=C(NCC(c1cnc(C(F)(F)F)nc1)N1CCOCC1)c1c(Cl)ccc2nc(NCc3cccnc3)ccc12 (stereo not drawn) [Compound 435]
7,31.6,CC1CN(c2ccc3c(C(=O)NCC(c4cnc(C(F)(F)F)nc4)N4CCOCC4)c(Cl)ccc3n2)CC(C)N1 (stereo not drawn) [Compound 436]
8,155,Cc1ccccc1CNc1ccc2c(C(=O)NCC(c3cnc(C(F)(F)F)nc3)N3CCOCC3)c(Cl)ccc2n1 (stereo not drawn) [Compound 437]
9,22.9,O=C(NCC(c1cnc(C(F)(F)F)nc1)N1CCOCC1)c1c(Cl)ccc2nc(NCc3ccc(F)cc3)ccc12 (stereo not drawn) [Compound 438]
10,40.7,O=C(NCC(c1cnc(C(F)(F)F)nc1)N1CCOCC1)c1c(Cl)ccc2nc(NCCN3CCOCC3)ccc12 (stereo not drawn) [Compound 439]
11,37.2,O=C(NCC(c1cnc(C(F)(F)F)nc1)N1CCOCC1)c1c(Cl)ccc2nc(NCc3ccc4c(c3)OCO4)ccc12 (stereo not drawn) [Compound 440]
12,24.5,O=C(NCC(c1cnc(C(F)(F)F)nc1)N1CCOCC1)c1c(Cl)ccc2nc(N3CCC4(CC3)OCCCO4)ccc12 (stereo not drawn) [Compound 441]
13,224,O=C(NCC(c1cnc(C(F)(F)F)nc1)N1CCOCC1)c1c(Cl)ccc2nc(N3CCC(N4CCCC4=O)CC3)ccc12 (stereo not drawn) [Compound 442]
14,282,CC(=O)N1C[C@H]2CC[C@@H]1N(c1ccc3c(C(=O)NCC(c4cnc(C(F)(F)F)nc4)N4CCOCC4)c(Cl)ccc3n1)C2 (stereo partly drawn) [Compound 443]
15,25.7,O=C(NCC(c1cnc(C(F)(F)F)nc1)N1CCOCC1)c1c(Cl)ccc2nc(N3CCCNCC3)ccc12 (stereo not drawn) [Compound 444]
16,23.4,O=C(NCC(c1cnc(C(F)(F)F)nc1)N1CCOCC1)c1c(Cl)ccc2nc(N3CCC(c4n[nH]c(=O)[nH]4)CC3)ccc12 (stereo not drawn) [Compound 445]

# Target: T2, hP2X7 (Homo sapiens, UniProt Q99572)
# T2 construct: expressed in transfected cells; host or cells: 1321N1 astrocytoma cells
# T2 sequence (Q99572 1-595): T1 sequence (Q99572 1-595)
# Assay: P2X7 antagonism: ligand-induced Ca2+ flux in 1321N1 astrocytoma cells overexpressing hP2X7
# Format: cell-based
# Conditions: pIC50 = -log(IC50), read-out: hP2RX7pIC50 (mean pIC50 values) (converted)
# How it was run: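 Intracellular Ca2+ tracked with a quenched Ca2+-sensitive fluorescent dye kit (excitation 488 nm, emission 510-560 nm) in 1321N1 cells, before and after agonist addition in presence of antagonist. Effects expressed as % control and IC50.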
row,IC50 [nM],SMILES
1,45.7,CCOc1ncc(C(CNC(=O)c2cccc3nc(N4CCN(C(C)C)CC4)ccc23)N2CCC(F)(F)CC2)cn1 (stereo not drawn) [Compound 298]
2,110,CC(C)c1ncc(C(CNC(=O)c2cccc3nc(N4CCN(C(C)C)CC4)ccc23)N2CCC(F)(F)CC2)cn1 (stereo not drawn) [Compound 299]
3,37.2,CC(C)N1CCN(c2ccc3c(C(=O)NCC(c4cnc(OC5CCC5)nc4)N4CCC(F)(F)CC4)cccc3n2)CC1 (stereo not drawn) [Compound 300]
4,166,O=C(NCC(c1cnc(N2CCNCC2)nc1)N1CCC(F)(F)CC1)c1cccc2nc(N3CCCC3)ccc12 (stereo not drawn) [Compound 301]
5,81.3,CC(C)N1CCN(c2ccc3c(C(=O)NCC(c4cnc(N)nc4)N4CCC(F)(F)CC4)cccc3n2)CC1 (stereo not drawn) [Compound 302]
6,52.5,CCOc1ncc(C(CNC(=O)c2cccc3nc(N4CCCC4)ccc23)N2CCOCC2)cn1 (stereo not drawn) [Compound 303]
7,28.2,O=C(NCC(c1cnc(OCC2CC2)nc1)N1CCC(F)(F)CC1)c1cccc2nc(N3CCCC3)ccc12 (stereo not drawn) [Compound 304]
8,100,CC(C)Oc1ncc(C(CNC(=O)c2cccc3nc(N4CCCC4)ccc23)N2CCC(F)(F)CC2)cn1 (stereo not drawn) [Compound 305]
9,46.8,CC(C)Oc1ncc(C(CNC(=O)c2cccc3nc(N4CCN(C(C)C)CC4)ccc23)N2CCC(F)(F)CC2)cn1 (stereo not drawn) [Compound 306]
10,45.7,O=C(NCC(c1cnc(C2CCCC2)nc1)N1CCC(F)(F)CC1)c1cccc2nc(N3CCCC3)ccc12 (stereo not drawn) [Compound 307]
11,49,CC(C)c1ncc(C(CNC(=O)c2cccc3nc(N4CCCC4)ccc23)N2CCC(F)(F)CC2)cn1 (stereo not drawn) [Compound 308]
12,74.1,CC(=O)N1CCN(c2ncc(C(CNC(=O)c3cccc4nc(N5CCN(C(C)C)CC5)ccc34)N3CCC(F)(F)CC3)cn2)CC1 (stereo not drawn) [Compound 309]
13,56.2,CCOc1ncc(C(CNC(=O)c2cccc3nc(N4CCN(C(C)C)CC4)ccc23)N2CCOCC2)cn1 (stereo not drawn) [Compound 310]
14,112,CCc1ncc(C(CNC(=O)c2cccc3nc(N4CCOCC4)ccc23)N2CCOCC2)cn1 (stereo not drawn) [Compound 311]
15,105,CC(C)N1CCN(c2ccc3c(C(=O)NCC(c4cnc(N5CCNCC5)nc4)N4CCC(F)(F)CC4)cccc3n2)CC1 (stereo not drawn) [Compound 312]
16,117,O=C(NCC(c1cnc(OC2CCC2)nc1)N1CCOCC1)c1cccc2nc(N3CCOCC3)ccc12 (stereo not drawn) [Compound 313]
17,151,O=C(NCC(c1cnc(C2CCCC2)nc1)N1CCOCC1)c1cccc2nc(N3CCOCC3)ccc12 (stereo not drawn) [Compound 314]
18,42.7,O=C(NCC(c1cnc(-c2ccccc2)nc1)N1CCOCC1)c1cccc2nc(N3CCOCC3)ccc12 (stereo not drawn) [Compound 315]
